Tests used:
[1] = 1M ASAP (Accelerated Stability Assessment Program) stability study; format: physicochemical; details: samples stored for 1 month at 60° C.
Experimental: The new 25 concepts were screened in a 1M ASAP (Accelerated Stability Assessment Program) stability study (5, 40 and 60° C. storage conditions), in a 6M lab stability study and in PET tests.
The Results of the 6-Month (6M) Lab Stability

[2] = Microscope search for new needle-shaped (co-)crystals in stored/stressed suspensions; format: physicochemical; details: benzyl alcohol as preservative
Excerpt: As consequence of the increased paraben concentration, a crystallization issue has been observed with the suspension Composition 2 after a few months in stability at different storage conditions. […] By IR, Raman and MS analysis, the new needle crystals are characterized as potentially being co-crystals of the API and Parabens.
Between the acceptable concepts 13 to 20, after 6M storage in cyclic conditions, only in the concept containing benzoic acid as an incipient was new crystallization observed. The other samples were stable. • All concepts were physically stressed by rolling.
All suspension concepts were rolled into a glass vial, closed with a child resistant stopper, at room temperature, horizontally, at a speed of 25 rpm, for 1M. […] Between these concepts, only concepts 18, 19 and 20 were stable.
Some concepts were spiked to try to induce a rapid co-crystallization. Concepts containing Methyl and Ethyl paraben, were spiked with few granules of powder of co-crystals of API/Methyl Paraben and API/Et Paraben.

reduction in preservative assay [1] | (co-)crystallization [2] | Compound
about 15% |  | C/C=C/C=C/C(=O)O [Sorbic acid]
1% | not observed | OCc1ccccc1 [benzyl alcohol]

Compound | reduction in preservative assay [1] | (co-)crystallization [2]
O=C(O)c1ccccc1 [benzoic acid] | about 5% | 

— patent publication US12201690B2, “Formulations/compositions comprising ibrutinib” (Janssen Pharmaceutica NV, priority 2018, dated 2025)
